Reference: US20030228277A1, “Use of ROM production and release inhibitors to treat and prevent intraocular damage” (priority 2002, published 2003)

Key:
[1] = test system: diabetic patient manifesting preproliferative diabetic retinopathy; conditions: intravitreal ophthalmic solution containing 1% histamine diphosphate; compared to an untreated individual
Procedure: A diabetic patient manifesting preproliferative diabetic retinopathy is treated for this complication of diabetes mellitus through the intravitreal injection of a histamine compound.
This increased surveillance should include periodic retinal examinations and fluorescein angiograms to monitor the extent of venous beading, IRMA, and retinal ischemia.
When preproliferative diabetic retinopathy begins reaching the proliferative stage, treatment with an ROM inhibitor or scavenger is commenced. This stage is defined as the presence of venous beading in 2 or more quadrants, IRMA in one or more quadrants, and/or microaneurysm and dot hemorrhages in all quadrants. Once these indicia are present, the administration of a ROM inhibitor or scavenger is initiated.
The patient receives a full ophthalmic examination to establish a baseline of ocular health. […]
After treatment, the patient's eyes are examined on days one (1), two (2), seven (7), fifteen (15), thirty (30) and sixty (60). On each examination day, the patient is monitored. Additionally, the patient is monitored for posterior vitreous detachments using indirect ophthalmoscopy with scleral depression. Finally, the extent of PDR presented by the patient is continuously monitored through periodic retinal examinations and fluorescein angiograms to monitor the extent of venous beading, IRMA, and retinal ischemia.

macular hole formation = conditions: 200 μl intravitreal ophthalmic solution containing 5% histamine dihydrochloride; compared with untreated eyes
Procedure: The described methods contemplate the use of histamine to reduce ROM levels and so as to eliminate the conditions which result in macular hole formation. Following the preliminary examination, an intravitreal injection of histamine dihydrochloride is given to patient's affected eye. If both eyes are affected, they may be treated separately. The eye is injected with the histamine ophthalmic solution intravitreally to promote a reduction of ROM levels. The eye to be treated is injected intravitreally with 200 μl of a histamine ophthalmic solution containing 5% histamine dihydrochloride to prevent or reduce ROM mediate intraocular damage.

[2] = test system: patient suffering from PDR; conditions: approximately 100 μl of a 2% histamine-containing solution injected intraocularly, repeated every two weeks
Text: As a preliminary step a patient is identified as suffering from PDR. […] The patient is monitored thereafter. The treatment is repeated every two weeks.

[3] = test system: diabetic patient manifesting proliferative diabetic retinopathy; conditions: ophthalmic gel containing 0.5% histamine dihydrochloride; compared with patients who received no histamine
Text: The purpose of this treatment is to reduce the extent of proliferative diabetic retinopathy, to prevent further manifestations of the disease after removal of any extraretinal neovascularized tissue, and to reduce the likelihood of retinal detachment.
A patient presenting proliferative diabetic retinopathy receives the histamine treatment described herein in combination with surgical treatment of the neovascularized tissue.
Once diagnosed as entering the proliferative stage, the patient receives a full ophthalmic examination to establish a baseline of ocular health. […]
After treatment, the patients' eyes are examined on days one (1), two (2), seven (7), fifteen (15), thirty (30) and sixty (60). On each examination day, the patient is monitored. Additionally, the patient is monitored for posterior vitreous detachments using indirect ophthalmoscopy with scleral depression. Finally, the extent of PDR presented by the patient is continuously monitored through periodic retinal examinations and fluorescein angiograms to monitor the extent of venous beading, IRMA, retinal ischemia, neovascularization, and vitreal hemorrhage. […]

NADPH oxidase = molecular target: T1, NADPH oxidase (Homo sapiens, UniProt P04839); conditions: membrane bound enzyme converting oxygen to superoxide; cited from earlier work
T1 construct: host or cells: phagocytes (not specified further)

[4] = test system: patient manifesting age-related macular degeneration; assay: Treatment of age-related macular degeneration, intravitreal ROM scavenger; format: in vivo, human; conditions: intravitreal ophthalmic solution containing 0.75% superoxide dismutase; compared to untreated eyes
Procedure: A patient manifesting age-related macular degeneration is treated with an intravitreal injection of a scavenger of ROM, namely superoxide dismutase.
Once a patient reaches the age of 60, increased ophthalmic surveillance is performed to detect the presence of ADM.
When ADM is diagnosed, a regime of histamine treatment is commenced coupled with or without other treatments such as photocoagulation.
Following the preliminary examination, an intravitreal injection of superoxide dismutase is given to the patient's affected eye manifesting ADM. […] The eye to be treated is injected intravitreally with an ophthalmic solution containing 0.75% superoxide dismutase to prevent or reduce ROM mediate intraocular damage.
Because of the possibility of reoccurrence, the patient should return for periodic examinations on a monthly basis thereafter. […] Additional superoxide dismutase and/or laser treatments may be required if indicia of reoccurring neovascularization are observed.

Compound: histamine diphosphate
- development of proliferative diabetic retinopathy [1]: reduction in the development of proliferative diabetic retinopathy

Compound: NCCc1c[nH]cn1 [histamine]
- incidence of macular hole formation (macular hole formation): reduction in the incidence of macular hole formation
- symptoms associated with PDR [2]: reduction in symptoms associated with PDR

Compound: Cl.Cl.NCCc1c[nH]cn1 [histamine dihydrochloride]
- development of posterior vitreous detachments [3]: reduction in the development of posterior vitreous detachments

Compound: NC(=O)C1=CN([C@@H]2O[C@H](COP(=O)(O)OP(=O)(O)OC[C@H]3O[C@@H](n4cnc5c(N)ncnc54)[C@H](OP(=O)(O)O)[C@@H]3O)[C@@H](O)[C@H]2O)C=CC1 [NADPH]
- Km (NADPH oxidase): 45 µM

Compound: NC(=O)C1=CN([C@@H]2O[C@H](COP(=O)(O)OP(=O)(O)OC[C@H]3O[C@@H](n4cnc5c(N)ncnc54)[C@H](O)[C@@H]3O)[C@@H](O)[C@H]2O)C=CC1 [NADH]
- Km (NADPH oxidase): 450 µM

Compound: superoxide dismutase
- ocular health [4]: improvement in ocular health
